Experimental data published in US20260001847A1, “HERBICIDAL QUINOLONE DERIVATIVES” (SYNGENTA CROP PROTECTION AG, priority 2022, published 2026).
Marks after values point to notes of the source that are not given here.

Tests used:
Assay type in all cases: in vivo
[1] = test system: Ipomoea hederacea (IPOHE); assay: Pre-emergence Test; conditions: evaluated after 13 days
Setaria faberi (SETFA) [2] = assay: Pre-emergence Test; conditions: 1000 g/ha, evaluated after 13 days
[3] = test system: Echinochloa crus-galli (ECHCG); assay: Pre-emergence Test; conditions: 1000 g/ha, evaluated after 13 days
Zea mays (ZEAMX) [4] = assay: Pre-emergence Test; conditions: 1000 g/ha, evaluated after 13 days
[5] = test system: Amaranthus retoflexus (AMARE); assay: Pre-emergence Test; conditions: evaluated after 13 days
[6] = test system: Amaranthus palmeri (AMAPA); assay: Pre-emergence Test; conditions: evaluated after 13 days
[7] = test system: Amaranthus palmeri (AMAPA); assay: Post-emergence Test; conditions: evaluated after 13 days
Procedure: (§1) Seeds of a variety of test species are sown in standard soil in pots (Abutilon theophrasti (ABUTH), Ipomoea hederacea (IPOHE). Setaria faberi (SETFA), Echinochloa crus-galli (ECHCG), Zea mays (ZEAMX), Amaranthus retoflexus (AMARE), Solanum nigrum (SOLNI), Lolium perenne (LOLPE), Amaranthus palmeri (AMAPA)). After 8 days cultivation under controlled conditions in a glasshouse (at 24° C./16° C., day/night-; 14 hours light; 65% humidity), the plants are sprayed with an aqueous spray solution derived from the formulation of the technical active ingredient in acetone/water (50:50) solution containing 0.5% Tween 20 (polyoxyethylene sorbitan monolaurate, CAS RN 9005-64-5). Compounds are applied at 1000 g/ha unless otherwise stated. The test plants are then grown in a glasshouse under controlled conditions in a glasshouse (at 24° C./16° C., day/night; 14 hours light; 65% humidity) and watered twice daily. After 13 days the test is evaluated for the percentage damage caused to the plant. The biological activities are shown in the following table on a five-point scale (5=81-100%; 4=61-80%; 3=41-60%; 2=21-40%; 1=0-20%; -=not tested).

[8] = test system: Amaranthus retoflexus (AMARE); assay: Post-emergence Test; conditions: evaluated after 13 days
Procedure: as §1

[9] = test system: Echinochloa crus-galli (ECHCG); assay: Post-emergence Test; conditions: evaluated after 13 days
Procedure: as §1

[10] = test system: Ipomoea hederacea (IPOHE); assay: Post-emergence Test; conditions: evaluated after 13 days
Procedure: as §1

Setaria faberi (SETFA) [11] = assay: Post-emergence Test; conditions: evaluated after 13 days
Procedure: as §1

Zea mays (ZEAMX) [12] = assay: Post-emergence Test; conditions: evaluated after 13 days
Procedure: as §1

SMILES	percentage damage caused to the plant, IPOHE ([1]; 1000 g/ha)	percentage damage caused to the plant, SETFA (Setaria faberi (SETFA) [2])	percentage damage caused to the plant, ECHCG [3]	percentage damage caused to the plant, ZEAMX (Zea mays (ZEAMX) [4])	percentage damage caused to the plant, AMAPA ([7]; 1000 g/ha)	percentage damage caused to the plant, AMARE ([8]; 1000 g/ha)	percentage damage caused to the plant, ECHCG ([9]; 1000 g/ha)	percentage damage caused to the plant, IPOHE ([10]; 1000 g/ha)	percentage damage caused to the plant, SETFA (Setaria faberi (SETFA) [11]; 1000 g/ha)	percentage damage caused to the plant, ZEAMX (Zea mays (ZEAMX) [12]; 1000 g/ha)	other results
CCn1c(-c2ccc(Cl)c(Cl)c2)c(C(=O)O)c(=O)c2cc(Br)ccc21 [Compound 8, 6-bromo-2-(3,4-dichlorophenyl)-1-ethyl-4-oxo-quinoline-3-carboxylic acid]	1 (1=0-20%)	5 (5=81-100%)	5 (5=81-100%)	2 (2=21-40%)	1 (1=0-20%)	0	4 (4=61-80%)	4 (4=61-80%)	4 (4=61-80%)	4 (4=61-80%)	percentage damage caused to the plant, AMARE ([5]; 1000 g/ha): 1 (1=0-20%); percentage damage caused to the plant, AMAPA ([6]; 1000 g/ha): 2 (2=21-40%)
CCn1c(-c2ccc(Cl)c(Cl)c2)c(C(=O)O)c(=O)c2c(Br)cccc21 [Compound 4, 5-bromo-2-(3,4-dichlorophenyl)-1-ethyl-4-oxo-quinoline-3-carboxylic acid]	1 (1=0-20%)	5 (5=81-100%)	5 (5=81-100%)	3 (3=41-60%)	0	0	1 (1=0-20%)	1 (1=0-20%)	1 (1=0-20%)	1 (1=0-20%)	percentage damage caused to the plant, AMARE ([5]; 1000 g/ha): 1 (1=0-20%); percentage damage caused to the plant, AMAPA ([6]; 1000 g/ha): 2 (2=21-40%)
CCn1c(-c2ccc(Cl)c(Cl)c2)c(C(=O)O)c(=O)c2cc(C(N)=O)ccc21 [Compound 10, 6-carbamoyl-2-(3,4-dichlorophenyl)-1-ethyl-4-oxo-quinoline-3-carboxylic acid]	0	0	0	2 (2=21-40%)	4 (4=61-80%)	2 (2=21-40%)		1 (1=0-20%)	4 (4=61-80%)	2 (2=21-40%)	
CC(=O)c1cccc2c1c(=O)c(C(=O)O)cn2-c1ccc(OC(F)(F)F)cc1 [Compound 19, 5-acetyl-4-oxo-1-[4-(trifluoromethoxy)phenyl]quinoline-3-carboxylic acid]	0	3 (3=41-60%)	3 (3=41-60%)	0	2 (2=21-40%)	0	4 (4=61-80%)	1 (1=0-20%)	3 (3=41-60%)	3 (3=41-60%)	
CCn1c(-c2ccc(Cl)c(Cl)c2)c(C(=O)O)c(=O)c2cc(-c3ccc(F)cc3)ccc21 [Compound 9, 2-(3,4-dichlorophenyl)-1-ethyl-6-(4-fluorophenyl)-4-oxo-quinoline-3-carboxylic acid]	1 (1=0-20%)	4 (4=61-80%)	3 (3=41-60%)	1 (1=0-20%)	2 (2=21-40%)	2 (2=21-40%)	0	2 (2=21-40%)	0	0	
CCn1c(-c2ccc(Cl)c(Cl)c2)c(C(=O)O)c(=O)c2ccc(C(F)(F)F)cc21 [Compound 13, 2-(3,4-dichlorophenyl)-1-ethyl-4-oxo-7-(trifluoromethyl)quinoline-3-carboxylic acid]	0	0	0	0	1 (1=0-20%)	2 (2=21-40%)	2 (2=21-40%)	0	1 (1=0-20%)	1 (1=0-20%)	
CCn1c(-c2ccc(Cl)c(Cl)c2)c(C(=O)O)c(=O)c2cc(Cl)ccc21 [Compound 5, 6-chloro-2-(3,4-dichlorophenyl)-1-ethyl-4-oxo-quinoline-3-carboxylic acid]	0	2 (2=21-40%)	0	1 (1=0-20%)	1 (1=0-20%)	1 (1=0-20%)		1 (1=0-20%)	4 (4=61-80%)	2 (2=21-40%)	
CCn1c(-c2ccc(Cl)c(Cl)c2)c(C(=O)O)c(=O)c2c(C#N)cccc21 [Compound 17, 5-cyano-2-(3,4-dichlorophenyl)-1-ethyl-4-oxo-quinoline-3-carboxylic acid]											percentage damage caused to the plant, IPOHE ([1]; 250 g/ha): 1* (1=0-20%); percentage damage caused to the plant, AMARE ([5]; 250 g/ha): 1* (1=0-20%); percentage damage caused to the plant, AMAPA ([6]; 250 g/ha): 1* (1=0-20%); percentage damage caused to the plant, AMAPA ([7]; 250 g/ha): 2* (2=21-40%); percentage damage caused to the plant, AMARE ([8]; 250 g/ha): 2* (2=21-40%); percentage damage caused to the plant, ECHCG ([9]; 250 g/ha): 1* (1=0-20%); percentage damage caused to the plant, IPOHE ([10]; 250 g/ha): 2* (2=21-40%); percentage damage caused to the plant, SETFA (Setaria faberi (SETFA) [11]; 250 g/ha): 1* (1=0-20%); percentage damage caused to the plant, ZEAMX (Zea mays (ZEAMX) [12]; 250 g/ha): 0*
CCn1c(-c2ccc(Cl)c(Cl)c2)c(C(=O)O)c(=O)c2cc(F)ccc21 [Compound 6, 2-(3,4-dichlorophenyl)-1-ethyl-6-fluoro-4-oxo-quinoline-3-carboxylic acid]	0	5 (5=81-100%)	5 (5=81-100%)	0	3 (3=41-60%)	1 (1=0-20%)	4 (4=61-80%)	3 (3=41-60%)	4 (4=61-80%)	4 (4=61-80%)	
CCn1c(-c2ccc(Cl)c(Cl)c2)c(C(=O)O)c(=O)c2cc(C(F)(F)F)ccc21 [Compound 16, 2-(3,4-dichlorophenyl)-1-ethyl-4-oxo-6-(trifluoromethyl)quinoline-3-carboxylic acid]	1 (1=0-20%)	5 (5=81-100%)	5 (5=81-100%)	1 (1=0-20%)	0	0	4 (4=61-80%)	2 (2=21-40%)	4 (4=61-80%)	3 (3=41-60%)	percentage damage caused to the plant, AMARE ([5]; 1000 g/ha): 1 (1=0-20%)
CCn1c(-c2ccc(Cl)c(Cl)c2)c(C(=O)O)c(=O)c2cc(C#N)ccc21 [Compound 7, 6-cyano-2-(3,4-dichlorophenyl)-1-ethyl-4-oxo-quinoline-3-carboxylic acid]	1 (1=0-20%)	5 (5=81-100%)	5 (5=81-100%)	3 (3=41-60%)	4 (4=61-80%)	3 (3=41-60%)		2 (2=21-40%)	4 (4=61-80%)	3 (3=41-60%)	
